Assays:
[1] = tested on: breast cancer cells (MDA); assay: MTT assay, in vitro growth inhibition, MDA cells; assay type: cell-based; set-up: in vitro growth inhibition rate, MDA: unit not given here; details: test drug concentration 4 μg/mL, 37° C., 3 days; for inhibition at 4 µg/mL: 72 h, read-out: in vitro growth inhibition rate, MDA
Experimental: (§1) The in vitro cytotoxicity of the compounds of the present invention was tested with reference to the experimental methods reported in the literature (Liu Yanqin et al., Organic Chemistry, 2002, 22(4), 279-282). The human oral epithelial cancer cells (KB), human lung cancer cells (A-549), and breast cancer cells (MDA) were used to test the in vitro growth inhibition rate of the compounds by MTT assay. Cells were cultured at 37° C. for 3 days under a test drug concentration of 4 μg/mL.

[2] = tested on: human lung cancer cells (A-549); assay: MTT assay, in vitro growth inhibition, A-549 cells; assay type: cell-based; set-up: in vitro growth inhibition rate, A549: unit not given here; details: test drug concentration 4 μg/mL, 37° C., 3 days; for inhibition at 4 µg/mL: Homo sapiens, A549, 72 h, read-out: in vitro growth inhibition rate, A549
Experimental: as §1

| Structure (SMILES) | inhibition at 4 µg/mL [1] [%] | inhibition at 4 µg/mL [2] [%] | in vitro growth inhibition rate, MDA [1] | in vitro growth inhibition rate, A549 [2] |
| --- | --- | --- | --- | --- |
| CN(C)CCNC(=O)c1cccc2cc3ccccc3nc12 [DACA (1), reference compound] | 2 | 1.7 | – | – |
| CCN(C)CCNC(=O)c1cn(C)c(=O)c2cc3cccc(C)c3nc12 [Compound 88] | – | – | 1.4 | 1.6 |
| Cc1cccc2nc3cccc(C(=O)NC(C)CN(C)C(C)C)c3nc12 (stereo not shown) [Compound 66, N-[1-methyl-2-(N-isopropylmethylamino)ethyl]-1-methylphenazine-9-carboxamide] | 1.9 | 1.2 | – | – |
| CCNC(C)CNC(=O)c1cccc2cc3ccccc3nc12 (stereo not shown) [Compound 6] | – | – | −1.5 | −5 |
| CCN(CC)C(C)CNC(=O)c1cccc2cc3ccccc3nc12 (stereo not shown) [Compound 8] | – | – | −4.7 | −6.6 |
| CNC(C)CNC(=O)c1cccc2cc3ccccc3nc12 (stereo not shown) [Compound 5] | – | – | −5.1 | −11 |
| CCN(C)CCNC(=O)c1cn(CC)c(=O)c2cc3cccc(C)c3nc12 [Compound 90, N-[2-(N-ethylmethylamino)ethyl]-2-ethyl-6-methyl-1-oxo-1,2-dihydrobenzo[b][1,6]naphthyridine-4-carboxamide] | 6.4 | 3.5 | – | – |
| CNCCNC(=O)c1cn(-c2ccc(F)cc2)c(=O)c2cc3cccc(C)c3nc12 [Compound 85] | – | – | −1.8 | −3.4 |
| Cc1cccc2nc3cccc(C(=O)NCC(C)N(C)C(C)C)c3nc12 (stereo not shown) [Compound 50, N-[2-(N-isopropylmethylamino)propyl]-1-methylphenazine-9-carboxamide] | -7.2 | -7.8 | – | – |
| CCNCC(C)NC(=O)c1cccc2cc3ccccc3nc12 (stereo not shown) [Compound 22] | – | – | 2.5 | 3.1 |
| CCNCCNC(=O)c1cn(C)c(=O)c2cc3cccc(C)c3nc12 [Compound 87] | – | – | 3.9 | 5 |
| CCN(C)CCNC(=O)c1cn(-c2ccc(F)cc2)c(=O)c2cc3cccc(C)c3nc12 [Compound 86] | – | – | 14 | 9.8 |
| CCN(C)C(C)CNC(=O)c1cccc2cc3ccccc3nc12 (stereo not shown) [Compound 7] | – | – | 4.4 | −5.8 |
| CC(C)N(C)C(C)CNC(=O)c1cccc2cc3ccccc3nc12 (stereo not shown) [Compound 10, N-[2-(N-isopropylmethylamino)propyl]acridine-4-carboxamide] | 1.2 | 3.3 | – | – |

Reference: patent US11046687B2, “Polycyclic amide compound, preparation process and use thereof” (HEBEI GRANDIOS PHARMA CO., LTD., priority 2018, dated 2021)
